We go through 28 molecules from patent US12391660B2, “Heteroaromatic acetamide derivative, and preparation and use thereof” (Hangzhou Westan Pharmaceutical Technology Co., Ltd, priority 2019, dated 2025).

Sequence of human TRPA1 (O75762 whole entry): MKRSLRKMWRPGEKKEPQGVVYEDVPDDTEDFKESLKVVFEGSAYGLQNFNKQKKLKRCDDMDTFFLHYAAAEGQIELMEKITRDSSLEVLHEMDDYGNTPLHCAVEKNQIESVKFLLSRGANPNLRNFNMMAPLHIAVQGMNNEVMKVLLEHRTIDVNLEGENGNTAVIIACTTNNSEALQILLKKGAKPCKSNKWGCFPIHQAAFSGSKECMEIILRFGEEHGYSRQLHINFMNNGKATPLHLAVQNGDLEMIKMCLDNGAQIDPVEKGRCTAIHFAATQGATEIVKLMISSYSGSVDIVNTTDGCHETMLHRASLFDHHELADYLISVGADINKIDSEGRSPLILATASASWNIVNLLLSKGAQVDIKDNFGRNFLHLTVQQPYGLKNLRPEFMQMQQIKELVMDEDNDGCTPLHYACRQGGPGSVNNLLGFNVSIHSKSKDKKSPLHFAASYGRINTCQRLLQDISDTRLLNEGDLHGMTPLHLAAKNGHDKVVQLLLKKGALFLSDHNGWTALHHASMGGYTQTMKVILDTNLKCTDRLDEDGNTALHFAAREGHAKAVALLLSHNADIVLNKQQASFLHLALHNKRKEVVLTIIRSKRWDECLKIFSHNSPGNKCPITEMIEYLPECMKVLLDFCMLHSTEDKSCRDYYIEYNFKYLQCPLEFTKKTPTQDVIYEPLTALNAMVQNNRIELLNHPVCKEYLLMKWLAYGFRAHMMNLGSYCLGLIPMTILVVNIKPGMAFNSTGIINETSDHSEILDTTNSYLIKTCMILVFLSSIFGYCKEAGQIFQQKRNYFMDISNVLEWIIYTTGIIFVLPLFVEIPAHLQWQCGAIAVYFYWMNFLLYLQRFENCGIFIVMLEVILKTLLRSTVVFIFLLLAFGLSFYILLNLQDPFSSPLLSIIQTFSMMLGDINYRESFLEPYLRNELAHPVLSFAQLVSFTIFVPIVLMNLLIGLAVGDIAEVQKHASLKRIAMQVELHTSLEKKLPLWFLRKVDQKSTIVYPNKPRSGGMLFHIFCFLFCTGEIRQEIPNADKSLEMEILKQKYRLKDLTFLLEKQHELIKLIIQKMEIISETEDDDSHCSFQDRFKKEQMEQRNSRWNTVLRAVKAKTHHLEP

This test has as its target human TRPA1 (Homo sapiens (Human), UniProt O75762). The test is described as follows: FLIPR assay of inhibitory activity on human TRPA1 (calcium ion flux fluorescence). The conditions noted are these: HEK293 cells stably expressing human TRPA1. Format: cell-based. How it is done:
1. FLIPR Assay of Inhibitory Activity on Human TRPA1
A calcium ion flux fluorescence method (FLIPR assay) was adopted to measure the inhibitory activity of compounds on human TRPA1 channel. The literature reports of Lee and Chen et al. may be referred to for the method [Lee et al. Br J Pharmacol 2008, 153 (8): 1739-1749] [Chen et al. Pain 2011, 152(5):1165-72].
A HEK293 recombinant cell strain stably expressing human TRPA1 (Creative Biogene, NY) was cultured in DMEM (Thermo Fisher Scientific, Shanghai) medium (containing 10% calf serum, 5 μg/ml Blasticidin and 400 ug/ml G418). The incubator was under a condition of 37° C. and air humidity with 5% CO2.
TRPA1 cells were seeded in a 96-well analysis plate at a density of 75,000 cells per well (100 ul/well), and cultured overnight in an incubator at 37° C. and 5% CO2. On the second day, incubation was continued overnight under the same condition to induce the expression of TRPA1 after the culture medium in each well was poured out and a fresh supplement with the same culture medium containing 0.1 μg/ml Tetracycline was added. The further next day, the culture medium was pour out, a DMEM culture solution (also containing 2.5 mM Probenicid) containing 5 μM Fluo-4 AM (Molecular Probes) was added to each well, and incubation was conducted at 37° C. for 1 hour.
The compound was dissolved in 100% DMSO to prepare a 30 mM stock solution which was stored at −20° C. On the day of use, the compound stock solution was thawed at room temperature. Each compound was subjected to 1:5 serial dilution using DMSO medium at a starting concentration of 30 μM with 9 concentration points on a 96-well plate. Each compound was diluted in duplicate for testing. Ruthenium Red was used as the positive control compound and the same dilution was carried out at a starting concentration of 3 μM.
The cell analysis plate was placed in an FLIPR instrument […], and the compound in the compound plate was added to the corresponding hole on the cell analysis plate (First addition) via an automatic program, and the calcium ion fluorescence signal was recorded to determine whether the compound had agonistic activity. After 10 minutes, CaCl2 (Second addition) was added a final concentration of 3 mM to each well to stimulate intracellular calcium flux signals. Ca^++-dependent fluorescence signal was monitored continuously at 538 nm wavelength to analyze the inhibitory activity of the compounds.
The data was collected and analyzed using a FLIPR program. The fluorescence peak value was used to evaluate the inhibitory (or agonistic) activity of the compounds at each concentration. EXCEL and PRISM programs were used to calculate the IC50 value of the compounds.
Turning to “4-((3-(4-(3-trifluoromethyl) phenyl)piperazine-1-carbonyl) propane-2-yl)amino)benzo- nitrile [Compound 9]”, the IC50 – broadly, the concentration that inhibits the measured activity by half – came out at 5.67 µM. Turning to `N#Cc1ccc(NC2(C(=O)N3CCN(c4cccc(C(F)(F)F)c4)CC3)CCCC2)cc1` [Compound 2, 4-((1-(4-(3-(trifluoromethyl)phenyl)piperazine-1-carbonyl)cyclopentyl)amino)benzo-nitrile], the IC50 was determined as 0.105 µM. As for `N#Cc1ccc(NC2(C(=O)N3CCN(c4ccccc4C(F)(F)F)CC3)CCCC2)cc1` [Compound 3, 4-((1-(4-(2-(trifluoromethyl)phenyl)piperazine-1-carbonyl)cyclopentyl)amino)benzo-nitrile], the IC50 came out at 1.58 µM.

In the case of `N#Cc1ccc(NC2(C(=O)N3CCN(c4ccccc4OC(F)(F)F)CC3)CCCC2)cc1` [Compound 4, 4-((1-(4-(2-(trifluoromethoxy)phenyl)piperazine-1-carbonyl)cyclopentyl)amino)benzo-nitrile], the IC50 was 0.152 µM. Next, `N#Cc1ccc(NC2(C(=O)N3CCN(c4ccc(OC(F)(F)F)cc4)CC3)CCCC2)cc1` [Compound 5]: 0.129 µM. Under `COc1cc(Cl)ccc1N1CCN(C(=O)C2(Nc3ccc(C#N)cc3)CCCC2)CC1` [Compound 6, 4-((1-(4-(4-chloro-2-methoxyphenyl)piperazine-1-carbonyl)cyclopentyl)amino)benzo-nitrile] stands 0.035 µM. Under `Cc1cccc(N2CCN(C(=O)C3(Nc4ccc(C#N)cc4)CCCC3)CC2)c1` [Compound 7] stands 0.064 µM. As to `CCC(CC)(Nc1ccc(C#N)cc1)C(=O)N1CCN(c2cccc(C(F)(F)F)c2)CC1` [Compound 8], the IC50 is 0.568 µM. `N#Cc1ccc(NC2(C(=O)N3CCN(c4ccc(C(F)(F)F)cn4)CC3)CCCC2)cc1` [Compound 10, 4-((1-(4-(5-(trifluoromethyl)pyridin-2-yl)piperazine-1-carbonyl)cyclopentyl)amino)benzonitrile]: the IC50 came to 0.032 µM.

On to `N#Cc1ccc(NC2(C(=O)N3CCN(c4cccc(C(F)(F)F)n4)CC3)CC2)cc1` [Compound 12, 4-((1-(4-(6-(trifluoromethyl)pyridin-2-yl)piperazine-1-carbonyl)cyclopropyl)amino)ben zonitrile], for which the IC50 amounted to 6.23 µM. Next, `N#Cc1ccc(NC2(C(=O)N3CCN(c4cccc(C(F)(F)F)n4)CC3)CCC2)cc1` [Compound 13, 4-((1-(4-(6-(trifluoromethyl)pyridin-2-yl)piperazine-1-carbonyl)cyclobutyl)amino)benzo nitrile]: 0.378 µM; `CC(C)(C)C(Nc1ccc(C#N)cc1)C(=O)N1CCN(c2cccc(C(F)(F)F)n2)CC1` (stereo not shown) [Compound 14]: 0.087 µM. Under `Cc1cccc(N2CCN(C(=O)C3(Nc4ccc(C#N)cc4)CCCC3)CC2)n1` [Compound 15, 4-((1-(4-(6-methylpyridin-2-yl)piperazine-1-carbonyl)cyclopentyl)amino)benzonitrile] stands 0.023 µM; under `CN(C)C(=O)c1ccc(N2CCN(C(=O)C3(Nc4ccc(C#N)cc4)CCCC3)CC2)nc1` [Compound 16, 6-(4-(1-((4-cyano-phenyl)amino)cyclopentane-1-carbonyl)piperazine-1-yl)N, N-dimethylnicotinamide], 8.92 µM. As to `N#Cc1ccc(NC2(C(=O)N3CCN(c4ncc(C(F)(F)F)cn4)CC3)CCCC2)cc1` [Compound 17, 4-((1-(4-(5-(trifluoromethyl)pyrimidin-2-yl)piperazine-1-carbonyl)cyclopentyl)amino)ben zonitrile], the IC50 was found to be 0.018 µM. Under `N#Cc1ccc(NC2(C(=O)N3CCN(c4nccc(C(F)(F)F)n4)CC3)CCCC2)cc1` [Compound 18, 4-((1-(4-(4-(trifluoromethyl)pyrimidin-2-yl)piperazine-1-carbonyl)cyclopentyl)amino) benzonitrile] stands 0.038 µM. Regarding `N#Cc1ccc(NC2(C(=O)N3CCN(c4ccc(C(F)(F)F)nn4)CC3)CCCC2)cc1` [Compound 19, 4-((1-(4-(6-(trifluoromethyl)pyridazin-3-yl)piperazine-1-carbonyl)cyclopentyl)amino) benzonitrile], the IC50 worked out at 0.087 µM. For `N#Cc1ccc(NC2(C(=O)N3CCN(c4ccc(C(F)(F)F)nn4)CC3)CCCC2)cc1Cl` [Compound 22, 2-chloro-4-((1-(4-(6-(trifluoromethyl)pyridazin-3-yl)piperazine-1-carbonyl)cyclopentyl)amino)benzonitrile], the IC50 worked out at 0.765 µM. Under `N#Cc1ccc(NC2(C(=O)N3CCN(c4ccc(C(F)(F)F)s4)CC3)CCCC2)cc1` [Compound 24, 4-((1-(4-(5-(trifluoromethyl)thien-2-yl)piperazine-1-carbonyl)cyclopentyl)amino)benzonitrile] stands 0.576 µM; under `N#Cc1ccc(NC2(C(=O)N3CCN(c4ncc(C(F)(F)F)s4)CC3)CCCC2)cc1` [Compound 25, 4-((1-(4-(5-(trifluoromethyl)thiazol-2-yl)piperazine-1-carbonyl)cyclopentyl)amino)benzonitrile], 0.876 µM; under `Cn1ccc(N2CCN(C(=O)C3(Nc4ccc(C#N)cc4)CCCC3)CC2)n1` [Compound 26, 4-((1-(4-(1-methyl-1H-pyrazol-3-yl)piperazine-1-carbonyl)cyclopentyl)amino)benzonitrile], 2.83 µM.

Regarding `C#Cc1ccc(NC2(C(=O)N3CCN(c4cccc(C(F)(F)F)n4)CC3)CCCC2)cc1` [Compound 27, 4-((1-(4-(6-(trifluoromethyl)pyridin-2-yl)piperazine-1-carbonyl)cyclopentyl)amino)phenylacetylene], the IC50 amounted to 0.567 µM.

As for `N#Cc1ccc(NC2(C(=O)N3C[C@H]4CC[C@@H](C3)N4c3cccc(C(F)(F)F)n3)CCCC2)cc1` [Compound 28, 4-((1-(8-(6-(trifluoromethyl)pyridin-2-yl)-3,8-diazabicyclo[3.2.1]octane-3-carbonyl)cyclopentyl)amino)benzonitrile], the IC50 came out at 0.015 µM.

Consider `N#Cc1ccc(NC2(C(=O)N3CC4CCC3CN4c3cccc(C(F)(F)F)n3)CCCC2)cc1` (stereo not shown) [Compound 29, 4-((1-(5-(6-(trifluoromethyl)pyridin-2-yl)-2,5-diazabicyclo[2.2.2]octane-2-carbonyl)cyclopentyl)amino)benzonitrile], for which the IC50 worked out at 0.026 µM. Take `N#Cc1ccc(NC2(C(=O)N3CCN(CC4CCCC4)CC3)CCCC2)cc1` [Compound 30, 4-((1-(4-(cyclopentanemethyl)piperazine-1-carbonyl)cyclopentyl)amino)benzonitrile]: the IC50 is 0.054 µM. Take `CC(C)CC1CCN(C(=O)C2(Nc3ccc(C#N)cc3)CCCC2)CC1` [Compound 32, 4-((1-(4-(isobutyl)piperidine-1-carbonyl)cyclopentyl)amino)benzonitrile]: the IC50 is 0.543 µM.

As for `N#Cc1ccc(NC2(C(=O)N3CCC(C4CCCC4)CC3)CCCC2)cc1` [Compound 33, 4-((1-(4-(cyclopentyl)piperidine-1-carbonyl)cyclopentyl)amino)benzonitrile], the IC50 was 0.092 µM. Next, `N#Cc1ccc(NC2(C(=O)N3CCC4(CCCC4)CC3)CCCC2)cc1` [Compound 34, 4-((1-(8-aza-spiro[4.5]decane-8-carbonyl)cyclopentyl)amino)benzonitrile]: 0.287 µM.
